Assay results as given in patent publication US20150216182A1, “COMPOSITIONS AND METHODS OF THE ATTRACTION AND REPULSION OF INSECTS” (Olfactor Laboratories, Inc., priority 2012, published 2015).
Counter-ions that a name gives are not always drawn.

Legend:
female mosquitoes [1] = conditions: single compound, female mosquitoes, two hours; for % mortality with 0.2 mg/ml: 0.2 mg/ml on filter paper; for % mortality with 2 mg/ml: 2 mg/ml on filter paper
cpA neurons [2] = assay: extracellular single-sensillum electrophysiology: activation of cpA neuronal activity; conditions: for Class: Table 6, single compounds, increase over baseline cpA neuronal activity; for Comp B Class / Comp A Class: Table 9; for Comp B Class: component B tested individually; for Class B (activator class of the individual component): Table 15, single component alone, Mod Actv; for Comp A Class: component A tested individually
larvae = assay: larvicidal activity assay; type: in vivo; conditions: 24 hour exposure, dead larvae / total larvae; for % Lethality at 100 ppm / pest or weed control at 100 ppm: 100 ppm compound; for % Lethality with 0.25% compound conc. / pest or weed control at 0.25 %: 0.25% compound; for pest or weed control at 0.25 %: read-out: % Lethality with 0.25% compound conc.; for pest or weed control at 100 ppm: read-out: % Lethality at 100 ppm
Method: A 6-well plate (Corning Life Sciences, Tewksbury, Mass.) is used to test a compound's larvicidal activity. […] After a 24 hour exposure, the number of dead larvae are counted and recorded.
The results are presented in Table 17 as % lethality (the number of dead larvae divided by the total number of larvae).

[3] = tested on: bed bugs (Cimex lectularius); assay: bed bug repellency assay; type: in vivo; conditions: compound or combination on filter paper harborage, ten bed bugs
Method: Compounds and combinations of compounds of the present invention were assayed for their ability to repel bed bugs (Cimex lectularius) using a bed bug repellency assay. This assay takes advantage of the bed bug's natural tendency to seek harborage. Two petri dishes were obtained and the inner areas of each were sanded down (leaving the perimeter smooth.) Talc was applied on the perimeter and on the inside walls of the petri dishes with a small paint brush to prevent bed bugs from escaping. A cut off top portion of a solo bathroom cup was placed upside down in the center of one petri dish. A large plastic secondary container was gathered and a paper towel was laid down inside the bottom. The petri dish was then placed inside and ten bed bugs were placed inside the cut off portion of the solo cup. Next, two pieces of filter paper were cut down the middle to yield 4 equally sized halves. 3 pieces were placed inside a glass dish ([…]) and the remaining piece was placed in a separate dish. All 4 pieces were folded down the middle to create a “tent” or “harborage” when laid such that the folded crease faced up. 100 microliters of isopropyl alcohol was pipetted into 3 pieces of filter paper (all housed in the first glass dish.) In a separate 4 ml vial, 90 microliters of isopropyl alcohol was combined and vortexed with 10 microliters of the compound or compound combination being tested. 100 microliters of this solution [comprising a total of 100 mg of compound(s)] was pipetted onto the filter paper in the separate dish. All filter papers were then allowed to dry. Once dry, experiments were conducted first with two filter paper halves comprising only the isopropyl alcohol (control experiment) and then with the remaining filter paper halves [one with only isopropyl alcohol and one comprising the test compound(s).] Filter paper halves were placed on opposing sides of experimental petri dishes and bed bugs were allowed to move freely within the dishes for 5 minutes. Movement of bed bugs beneath each filter paper tent was recorded. […] In the Table, “Rep” refers to repellency and “Cmpd” refers to compound.

cpA neurons [4] = assay: extracellular single-sensillum electrophysiology: inhibition of CO2-responsive (cpA) neuronal activity; conditions: for Class: Table 10, single compounds, percent reduction in cpA activity compared to baseline; for Class (inhibitor class of the individual component): Inh = inhibitor
cpB and cpC neurons = assay: extracellular single-sensillum electrophysiology: beta activators; type: in vivo, Aedes aegypti; conditions: for Class (beta activator, individual component) / Class A (beta activator, individual component): Beta Actv; for beta activator (stimulates cpB and cpC neuronal activity): single compound; for Class A (beta activator, individual component): Table 15, single component alone
Excerpt: Three types of CO2-responsive neurons reside in the maxillary palp of mosquitoes. These include cpA, cpB and cpC neurons. […] These neurons produce spikes with much lower amplitude than those produced by cpA neurons. Although the activity from cpB and cpC neurons cannot easily be distinguished from one another, their collective activity can be distinguished from cpA neurons due to their characteristic spikes. This is useful in the identification of compounds and compositions that only activate or inhibit cpB and cpC neurons or compounds and compositions that activate or inhibit both.
Carbon dioxide receptor neurons are housed within the basiconic sensilla of the mosquito maxillary palp. While activity from cpA neurons produces the largest amplitude spike, cpB and cpC neurons present in this region are also responsive to skin odors. Activity from these neurons can also be detected through the electrophysiological methods described in Example 1.
Although the activity from cpB and cpC neurons cannot easily be distinguished from one another, their collective activity can be distinguished from cpA neurons due to their production of spikes with much lower amplitude than those produced by cpA neurons.

female mosquitoes [5] = assay: whole plant or invertebrate; conditions: 2 h; for mortality at 200 µg/mL: read-out: % mortality with 0.2 mg/ml; for mortality at 2000 µg/mL: read-out: % mortality with 2 mg/ml
[6] = Table 13, single component alone
[7] = Table 16, single component alone

Molecule	% mortality with 0.2 mg/ml (female mosquitoes [1])	% mortality with 2 mg/ml (female mosquitoes [1])	Class (cpA neurons [2])	% Lethality with 0.25% compound conc. (larvae)	% Lethality at 100 ppm (larvae)	% Rep (bed bug repellency) [3]	beta activator (stimulates cpB and cpC neuronal activity) (cpB and cpC neurons)	further results
2-ethyl-5(6)-methylpyrazine [OLI0032]	0%	0%	Mild Activator (mild activators yield an increase in neuronal activity that is between 20 and 40 spk/sec over baseline neuronal activity)	–	–	–	–	–
C/C=C(\C)C=O [OLI0013, trans-2-methyl-2-butenal]	0%	0%	Strong Activator (strong activators yield an increase in activity that is >60 spk/sec over baseline neuronal activity)	72% lethal	0% lethal	–	–	–
N#C/C=C/c1ccccc1 [OLI0020, cinnamyl nitrile]	0%	100%	Moderate Activator (Moderate activators yield an increase in neuronal activity that is between 40 and 60 spk/sec over baseline neuronal activity)	100% lethal	100% lethal	56%	–	Comp B Class (cpA neurons [2]): Mod; Class B (activator class of the individual component) (cpA neurons [2]): Mod
CCCC1CCC(=O)O1 (stereo not drawn) [OLI0024, gamma-heptalactone]	0%	0%	Moderate Activator (Moderate activators yield an increase in neuronal activity that is between 40 and 60 spk/sec over baseline neuronal activity)	100% lethal	0% lethal	71%	–	Comp A Class (cpA neurons [2]): Mod; Comp B Class (cpA neurons [2]): Mod; Class B (activator class of the individual component) (cpA neurons [2]): Mod
O=CCCc1ccccc1 [OLI0029, phenylpropylaldehyde]	0%	15%	Moderate Activator (Moderate activators yield an increase in neuronal activity that is between 40 and 60 spk/sec over baseline neuronal activity)	100% lethal	0% lethal	100%	–	Comp A Class (cpA neurons [2]): Mod; Comp B Class (cpA neurons [2]): Mod; Class B (activator class of the individual component) (cpA neurons [2]): Mod
CC(=O)/C=C/C=C(C)C [OLI0059]	0%	0%	Mild Activator (mild activators yield an increase in neuronal activity that is between 20 and 40 spk/sec over baseline neuronal activity)	100% lethal	58% lethal	87%	–	–
CCCCC(=O)OCc1ccco1 [OLI0074, furfurylpentanoate]	–	–	–	–	–	100%	beta activator	Class (cpA neurons [4]): Moderate Inhibitor (moderate inhibitors (reducing activity by 40-60%)); Class (inhibitor class of the individual component) (cpA neurons [4]; [6]): Mod; Class (inhibitor class of the individual component) (cpA neurons [4]; [7]): Mod; pest or weed control at 0.25 % (larvae): 100%; pest or weed control at 100 ppm (larvae): 0%; Class (beta activator, individual component) (cpB and cpC neurons; [7]): Beta; mortality at 200 µg/mL (female mosquitoes [5]): 0%; mortality at 2000 µg/mL (female mosquitoes [5]): 0%
CCCCCC(=O)CC [OLI0075, octanone-3]	0%	0%	–	100% lethal	50% lethal	–	–	Class (cpA neurons [4]): Moderate Inhibitor (moderate inhibitors (reducing activity by 40-60%)); Class (inhibitor class of the individual component) (cpA neurons [4]; [6]): Mod
C/C=C(\C)C(=O)OC(CC)CCCCC (stereo not drawn) [OLI0079, 1-ethylhexyl tiglate]	–	–	–	–	–	49%	beta activators	Class (cpA neurons [4]): Mild Inhibitor (mild inhibitors (reducing activity by 20-40%)); inhibitor class of single compound (cpA neurons [4]; single compound): mild cpA inhibitors; pest or weed control at 0.25 % (larvae): 100%; pest or weed control at 100 ppm (larvae): 0%; mortality at 200 µg/mL (female mosquitoes [5]): 0%; mortality at 2000 µg/mL (female mosquitoes [5]): 15%
CC/C=C\CCCCO [OLI0084, cis-5-octen-1-ol]	–	–	–	–	–	82%	beta activator	Class (cpA neurons [4]): Mild Inhibitor (mild inhibitors (reducing activity by 20-40%)); Class (inhibitor class of the individual component) (cpA neurons [4]; [6]): Mild; Class (inhibitor class of the individual component) (cpA neurons [4]; [7]): Mild; pest or weed control at 0.25 % (larvae): 100%; pest or weed control at 100 ppm (larvae): 0%; Class (beta activator, individual component) (cpB and cpC neurons; [7]): Beta; mortality at 200 µg/mL (female mosquitoes [5]): 0%; mortality at 2000 µg/mL (female mosquitoes [5]): 95%
CC/C=C\CCOC=O [OLI0096, cis-3-hexenyl formate]	–	–	–	–	–	6%	beta activators	pest or weed control at 0.25 % (larvae): 30%; pest or weed control at 100 ppm (larvae): 0%; Class A (beta activator, individual component) (cpB and cpC neurons): Beta; mortality at 200 µg/mL (female mosquitoes [5]): 0%; mortality at 2000 µg/mL (female mosquitoes [5]): 0%
CC(C)CCOC=O [OLI0098, isoamyl formate]	–	–	–	–	–	–	beta activators	Class A (beta activator, individual component) (cpB and cpC neurons): Beta
CC/C=C/CC(=O)OC [OLI0100, methyl (E)-hex-3-enoate]	–	–	–	–	–	17%	beta activators	pest or weed control at 0.25 % (larvae): 100%; pest or weed control at 100 ppm (larvae): 0%; Class (beta activator, individual component) (cpB and cpC neurons; [6]): Beta; Class A (beta activator, individual component) (cpB and cpC neurons): Beta; Class (beta activator, individual component) (cpB and cpC neurons; [7]): Beta; Comp B Class (cpA neurons [2]): Beta; mortality at 200 µg/mL (female mosquitoes [5]): 0%; mortality at 2000 µg/mL (female mosquitoes [5]): 0%
COC(/C=C/c1ccccc1)OC [OLI0106, cinnamic aldehyde dimethyl acetal]	0%	100%	–	100% lethal	10% lethal	90%	–	–
CC1=C2CCC(C)CC2OC1=O (stereo not drawn) [OLI0111, Menthalactone]	0%	100%	–	100% lethal	33% lethal	13%	–	–
furfurylpentenoate [OLI0088]	–	–	–	–	–	–	–	Class (cpA neurons [4]): Mild Inhibitor (mild inhibitors (reducing activity by 20-40%)); Class (inhibitor class of the individual component) (cpA neurons [4]; [7]): Mod; Class (beta activator, individual component) (cpB and cpC neurons; [7]): Beta
methoxy cinnamic aldehyde [OLI0112]	0%	100%	–	100% lethal	0% lethal	23%	–	–
